One experiment deals with NCI-H929 cell lines. Briefly: In vitro cytotoxicity, CellTiter-Glo (CTG) assay (Example B, Method B). The note with it: Homo sapiens, NCI-H929, 48 h, NCI-H929 cells, 48 h incubation, read-out: C50. Type of experiment: cell-based. An outline of the steps: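 NCI-H929 cells exposed to an 11-point compound series from 10 mM DMSO stocks (top final 30 μM) for 48 h at 37° C., 5% CO2. Viability measured as ATP by CellTiter-Glo luminescence; C50 is the concentration giving 50% cellular viability.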

Experiment [1] deals with Cy5-labelled Mcl1 (amino acids 171-321) C286S protein (UniProtKB Q07820) (Homo sapiens (Human), UniProt Q07820, C286S). Briefly: Inhibition of Mcl-1 by the fluorescence quenching assay (Example A, Method B). Type of experiment: binding. An outline of the steps: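 Cy5-labelled Mcl1 171-321 C286S (1 nM) quenched by TQ5WS-labelled PUMA peptide (10, 20 or 400 nM); displacement raises fluorescence (Ex 620/Em 680 nm). Buffer 10 mM HEPES, 150 mM NaCl, 0.05% Tween 20, pH 7.4, 5% DMSO; 2 h at room temperature, 11-point curves, IC50 converted to Ki (cKi/eKi).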

SMILES strings stand for the structures. Bounds are passed on as bounds.

Cy5-labelled Mcl1 (amino acids 171-321) C286S protein, sequence (Q07820 171-321 C286S): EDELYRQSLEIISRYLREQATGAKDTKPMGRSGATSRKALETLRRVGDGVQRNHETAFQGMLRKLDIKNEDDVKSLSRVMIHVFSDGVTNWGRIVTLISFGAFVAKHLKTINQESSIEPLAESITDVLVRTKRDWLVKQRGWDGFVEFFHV

Take `C[C@@H](COc1ccnc2c1[C@H](C)CCC2)C[C@H]1Cc2ccc(COC3CCCO3)cc2[C@]12CC[C@@](Nc1cccc(Cl)c1)(C(=O)O)CC2` (stereo partly drawn) [Example 872, (1r,2′S,4S)-4-(3-chloroanilino)-2′-[(2R)-2-methyl-3-{[(5R)-5-methyl-5,6,7,8-tetrahydroquinolin-4-yl]oxy}propyl]-6′-{[(oxolan-2-yl)oxy]methyl}-2′,3′-dihydrospiro[cyclohexane-1,1′-indene]-4-carboxylic acid]: the IC50 in the experiment with NCI-H929 cell lines was 52.9 nM. Further, in experiment [1], the Ki is 0.0505 nM.

On to `COC[C@H]1C[C@@H]1c1ccc2c(c1)[C@]1(CC[C@@](Nc3cccc(Cl)c3)(C(=O)O)CC1)[C@@H](C[C@@H](C)COc1ccnc3c1[C@H](C)CCC3)C2` [Example 874, (1r,2′S,4S)-4-(3-chloroanilino)-6′-[(1S,2S)-2-(methoxymethyl)cyclopropyl]-2′-[(2R)-2-methyl-3-{[(5R)-5-methyl-5,6,7,8-tetrahydroquinolin-4-yl]oxy}propyl]-2′,3′-dihydrospiro[cyclohexane-1,1′-indene]-4-carboxylic acid], for which, in the experiment with NCI-H929 cell lines, the IC50 was 113 nM. In addition, the Ki in experiment [1] is 0.161 nM.

In the case of `COC[C@@H]1C[C@H]1c1ccc2c(c1)[C@]1(CC[C@@](Nc3cccc(Cl)c3)(C(=O)O)CC1)[C@@H](C[C@@H](C)COc1ccnc3c1[C@H](C)CCC3)C2` [Example 875, (1r,2′S,4S)-4-(3-chloroanilino)-6′-[(1R,2R)-2-(methoxymethyl)cyclopropyl]-2′-[(2R)-2-methyl-3-{[(5R)-5-methyl-5,6,7,8-tetrahydroquinolin-4-yl]oxy}propyl]-2′,3′-dihydrospiro[cyclohexane-1,1′-indene]-4-carboxylic acid], the IC50 in the experiment on NCI-H929 cell lines amounted to 59.7 nM. The Ki in experiment [1] was 0.0843 nM.

Regarding `COc1ccccc1-c1ccc2c(c1)[C@]1(CC[C@@](Nc3cccc(Cl)c3)(C(=O)O)CC1)[C@@H](C[C@@H](C)COc1ccnc3c1[C@H](C)CCC3)C2` [Example 876, (1r,2′S,4S)-4-(3-chloroanilino)-6′-(2-methoxyphenyl)-2′-[(2R)-2-methyl-3-{[(5R)-5-methyl-5,6,7,8-tetrahydroquinolin-4-yl]oxy}propyl]-2′,3′-dihydrospiro[cyclohexane-1,1′-indene]-4-carboxylic acid], the IC50 with NCI-H929 cell lines was found to be 307 nM. Besides, in experiment [1], the Ki stood at 0.399 nM.

`COc1cccc(-c2ccc3c(c2)[C@]2(CC[C@@](Nc4cccc(Cl)c4)(C(=O)O)CC2)[C@@H](C[C@@H](C)COc2ccnc4c2[C@H](C)CCC4)C3)c1` [Example 877, (1r,2′S,4S)-4-(3-chloroanilino)-6′-(3-methoxyphenyl)-2′-[(2R)-2-methyl-3-{[(5R)-5-methyl-5,6,7,8-tetrahydroquinolin-4-yl]oxy}propyl]-2′,3′-dihydrospiro[cyclohexane-1,1′-indene]-4-carboxylic acid]: the IC50 in the experiment with NCI-H929 cell lines worked out at 505 nM. Moreover, the Ki in experiment [1] is 0.642 nM.

Consider `C[C@@H](COc1ccnc2c1[C@H](C)CCC2)C[C@H]1Cc2ccc(-c3ccsc3)cc2[C@]12CC[C@@](Nc1cccc(Cl)c1)(C(=O)O)CC2` [Example 878, (1r,2′S,4S)-4-(3-chloroanilino)-2′-[(2R)-2-methyl-3-{[(5R)-5-methyl-5,6,7,8-tetrahydroquinolin-4-yl]oxy}propyl]-6′-(thiophen-3-yl)-2′,3′-dihydrospiro[cyclohexane-1,1′-indene]-4-carboxylic acid], for which the IC50 in the experiment on NCI-H929 cell lines was 1110 nM. Moreover, in experiment [1], the inhibition constant Ki amounted to 0.386 nM.

Take `C[C@@H](COc1ccnc2c1[C@H](C)CCC2)C[C@@H]1Cc2ccc(-c3ccsc3)cc2[C@]12CC[C@@](Nc1cccc(Cl)c1)(C(=O)O)CC2` [Example 879, (1r,2′R,4R)-4-(3-chloroanilino)-2′-[(2R)-2-methyl-3-{[(5R)-5-methyl-5,6,7,8-tetrahydroquinolin-4-yl]oxy}propyl]-6′-(thiophen-3-yl)-2′,3′-dihydrospiro[cyclohexane-1,1′-indene]-4-carboxylic acid]: the IC50 in the experiment with NCI-H929 cell lines came out at 1360 nM. Besides, the Ki in experiment [1] stood at 4.06 nM.

For `C[C@@H](COc1ccnc2c1[C@H](C)CCC2)C[C@@H]1Cc2ccc(-c3ccc[nH]3)cc2[C@]12CC[C@@](Nc1cccc(Cl)c1)(C(=O)O)CC2` [Example 880, (1r,2′R,4R)-4-(3-chloroanilino)-2′-[(2R)-2-methyl-3-{[(5R)-5-methyl-5,6,7,8-tetrahydroquinolin-4-yl]oxy}propyl]-6′-(1H-pyrrol-2-yl)-2′,3′-dihydrospiro[cyclohexane-1,1′-indene]-4-carboxylic acid], in the experiment on NCI-H929 cell lines, the IC50 came out at 829 nM. The Ki in experiment [1] was 1.23 nM.

Take `C[C@@H](COc1ccnc2c1[C@H](C)CCC2)C[C@H]1Cc2ccc(-c3cccn3C)cc2[C@]12CC[C@@](Nc1cccc(Cl)c1)(C(=O)O)CC2` [Example 881, (1r,2′S,4S)-4-(3-chloroanilino)-2′-[(2R)-2-methyl-3-{[(5R)-5-methyl-5,6,7,8-tetrahydroquinolin-4-yl]oxy}propyl]-6′-(1-methyl-1H-pyrrol-2-yl)-2′,3′-dihydrospiro[cyclohexane-1,1′-indene]-4-carboxylic acid]: the IC50 in the experiment on NCI-H929 cell lines was 153 nM. For the same compound, the inhibition constant (Ki) in experiment [1] worked out at 0.154 nM.

For `C[C@@H](COc1ccnc2c1[C@H](C)CCC2)C[C@@H]1Cc2ccc(-c3cc[nH]c3)cc2[C@]12CC[C@@](Nc1cccc(Cl)c1)(C(=O)O)CC2` [Example 882, (1r,2′R,4R)-4-(3-chloroanilino)-2′-[(2R)-2-methyl-3-{[(5R)-5-methyl-5,6,7,8-tetrahydroquinolin-4-yl]oxy}propyl]-6′-(1H-pyrrol-3-yl)-2′,3′-dihydrospiro[cyclohexane-1,1′-indene]-4-carboxylic acid], the IC50 in the experiment on NCI-H929 cell lines came out at 1300 nM. Moreover, the Ki in experiment [1] was found to be 1.84 nM.

As to `C[C@@H](COc1ccnc2c1[C@H](C)CCC2)C[C@H]1Cc2ccc(-c3ccn(C)c3)cc2[C@]12CC[C@@](Nc1cccc(Cl)c1)(C(=O)O)CC2` [Example 883, (1r,2′S,4S)-4-(3-chloroanilino)-2′-[(2R)-2-methyl-3-{[(5R)-5-methyl-5,6,7,8-tetrahydroquinolin-4-yl]oxy}propyl]-6′-(1-methyl-1H-pyrrol-3-yl)-2′,3′-dihydrospiro[cyclohexane-1,1′-indene]-4-carboxylic acid], the IC50 with NCI-H929 cell lines came to 133 nM. Also, the Ki in experiment [1] turned out to be 0.246 nM.

In the case of `CC(c1ccc(O)cc1)c1ccc2c(c1)[C@]1(CC[C@@](Nc3cccc(Cl)c3)(C(=O)O)CC1)[C@@H](C[C@@H](C)COc1ccnc3c1[C@H](C)CCC3)C2` (stereo partly drawn) [Example 885, (1r,2′S,4S)-4-(3-chloroanilino)-6′-[1-(4-hydroxyphenyl)ethyl]-2′-[(2R)-2-methyl-3-{[(5R)-5-methyl-5,6,7,8-tetrahydroquinolin-4-yl]oxy}propyl]-2′,3′-dihydrospiro[cyclohexane-1,1′-indene]-4-carboxylic acid], the IC50 in the experiment on NCI-H929 cell lines came out at 341 nM. For the same compound, in experiment [1], the Ki came to 2.03 nM.

`C[C@@H](COc1c(Cl)cnc2c1[C@H](C)CCC2)C[C@H]1Cc2cc3c(cc2[C@]12CC[C@@](Nc1ccc(F)c(Cl)c1)(C(=O)O)CC2)OCO3` [Example 886, (1r,4S,6′S)-4-(3-chloro-4-fluoroanilino)-6′-[(2R)-3-{[(5R)-3-chloro-5-methyl-5,6,7,8-tetrahydroquinolin-4-yl]oxy}-2-methylpropyl]-6′,7′-dihydro-2′H-spiro[cyclohexane-1,5′-indeno[5,6-d][1,3]dioxole]-4-carboxylic acid]: in the experiment with NCI-H929 cell lines, the IC50 stood at 381 nM. For the same compound, the Ki in experiment [1] is 0.145 nM.

Take `C[C@@H](COc1ccnc2c1[C@H](C)CCC2)C[C@H]1Cc2cc3c(cc2[C@]12CC[C@@](Nc1ccc(Cl)c(Cl)c1)(C(=O)O)CC2)OCO3` [Example 887, (1r,4S,6′S)-4-(3,4-dichloroanilino)-6′-[(2R)-2-methyl-3-{[(5R)-5-methyl-5,6,7,8-tetrahydroquinolin-4-yl]oxy}propyl]-6′,7′-dihydro-2′H-spiro[cyclohexane-1,5′-indeno[5,6-d][1,3]dioxole]-4-carboxylic acid]: the IC50 in the experiment on NCI-H929 cell lines was found to be 151 nM. The Ki in experiment [1] is 0.293 nM.

For `C[C@@H](COc1ccnc2c1[C@H](C)CCC2)C[C@H]1Cc2c(Cl)c3c(cc2[C@]12CC[C@@](Nc1cccc(Cl)c1)(C(=O)O)CC2)OCO3` [Example 888, (1r,4S,6′S)-8′-chloro-4-(3-chloroanilino)-6′-[(2R)-2-methyl-3-{[(5R)-5-methyl-5,6,7,8-tetrahydroquinolin-4-yl]oxy}propyl]-6′,7′-dihydro-2′H-spiro[cyclohexane-1,5′-indeno[5,6-d][1,3]dioxole]-4-carboxylic acid], in the experiment with NCI-H929 cell lines, the IC50 was 92.5 nM. Further, in experiment [1], the inhibition constant Ki was found to be 0.25 nM.

`COCc1cc2c(cc1F)C[C@H](C[C@@H](C)COc1ccnc3c1[C@H](C)CCC3)[C@]21CC[C@](Nc2cccc(Cl)c2)(C(=O)O)CC1` [Example 921, (1r,2′S,4S)-4-(3-chloroanilino)-5′-fluoro-6′-(methoxymethyl)-2′-[(2R)-2-methyl-3-{[(5R)-5-methyl-5,6,7,8-tetrahydroquinolin-4-yl]oxy}propyl]-2′,3′-dihydrospiro[cyclohexane-1,1′-indene]-4-carboxylic acid]: in the experiment on NCI-H929 cell lines, the IC50 was 35.9 nM. The Ki in experiment [1] was 0.0108 nM.

`CCOC(=O)[C@]1(Nc2cccc(Cl)c2)CC[C@@]2(CC1)c1cc3c(cc1C[C@@H]2C[C@@H](C)COc1ccnc2c1[C@H](C)CCC2)OCO3` [Example 930, ethyl (1r,4S,6′S)-4-(3-chloroanilino)-6′-[(2R)-2-methyl-3-{[(5R)-5-methyl-5,6,7,8-tetrahydroquinolin-4-yl]oxy}propyl]-6′,7′-dihydro-2′H-spiro[cyclohexane-1,5′-indeno[5,6-d][1,3]dioxole]-4-carboxylate]: the IC50 with NCI-H929 cell lines was above 30000 nM. The inhibition at 1 µM in experiment [1] (@ 1 μM, read-out: Mcl-1 inhibition, % at a single concentration) was 4.5%.
